# Test results reported in patent publication US8664210B2, “Aminooxime derivatives of 2- and/or 4-substituted androstanes and androstenes as medicaments for cardiovascular disorders” (priority 2007, dated 2014).
# Columns and labels:
# Na+,K+-ATPase = Na+,K+-ATPase (Canis lupus familiaris, UniProt P50997); conditions: relative to compound 22b; cited from earlier work
# [1] = biological target: Dog Kidney Na+, K+-ATPase (Canis lupus familiaris, UniProt P50997); assay: Dog kidney Na+,K+-ATPase inhibition (hydrolysis of 32P-ATP); type: biochemical
# anesthetized guinea-pig = assay: inotropic effect and lethal dose in anesthetized guinea-pig (infusion over 90 minutes); type: in vivo; conditions: anesthetized guinea-pig, infusion over 90 min
# Procedure: The inotropic activity is shown as maximum increase in contractile force (Emax measured as +dP/dTmax), dose inducing maximum positive inotropic effect (EDmax), inotropic potency (ED80, dose increasing +dP/dTmax by 80%); the toxicity as the ratio between lethal dose and inotropic potency (calculated in the died animals). All animals, previously anesthetized, were administered the drug through infusion over a 90 minute period.
smiles,measurement,setting,value
"C[C@@H]1/C(=N/OCCN)CC[C@@]2(C)C1C(=O)C[C@@H]1[C@@H]2CC[C@]2(C)C(=O)CC[C@@H]12.Cl (stereo partly drawn) [Compd. 22d, (E)-3-(2-aminoethoxyimino)-4α-methylandrostan-6,17-dione hydrochloride]",times less active than des-methyl compound 22b,"Na+,K+-ATPase",30
same,IC50,[1],6 µM
same,Dead/treated,anesthetized guinea-pig,0/3
same,"ED80 (inotropic potency, dose increasing +dP/dTmax by 80%)",anesthetized guinea-pig,23.0 µmol/kg
same,EDmax (dose inducing maximum positive inotropic effect),anesthetized guinea-pig,149 µmol/kg
same,Emax % increase in +dP/dTmax (maximum increase in contractile force),anesthetized guinea-pig,190%
same,Maximum dose infused,anesthetized guinea-pig,250.3 µmol/kg
same,Notes (toxic signs during infusion),anesthetized guinea-pig; hydrochloride,tremors and contractions appeared during the infusion
